Results on six molecules are retold here after ChEMBL document CHEMBL5120883, “The Dawn of Allosteric BCR-ABL1 Drugs: From a Phenotypic Screening Hit to an Approved Drug” (2022).

Broadly, the GI50 is the concentration at which growth is held to half of that of the control.

The test system of the assay is BaF3. Kind of assay: Antiproliferative activity against mouse BaF3 cells expressing Bcr-Abl assessed as cell growth inhibition. The format is functional.
For `FC(F)(F)Oc1ccc(Nc2cc(-c3cn[nH]c3)ncn2)cc1`, the GI50 amounted to 90 nM.

As for `FC(F)(F)Oc1ccc(Nc2cc(-c3ccc4[nH]ccc4c3)ncn2)cc1`, the GI50 is 290 nM.

As to `FC(F)(F)Oc1cccc(Nc2cc(NCCN3CCOCC3)ncn2)c1`, the GI50 stood at 720 nM.

Consider `FC(F)(F)Oc1ccc(Nc2cc(NCCN3CCOCC3)ncn2)cc1`, for which the GI50 was 720 nM.

On to `FC(F)(F)c1ccc(Nc2cc(NCCN3CCOCC3)ncn2)cc1`, for which the GI50 stood at 920 nM.

`NS(=O)(=O)c1ccc(-c2cc(Nc3ccc(OC(F)(F)F)cc3)ncn2)cc1`: the GI50 turned out to be 120 nM.
